Experiments:
[1] = target: T1, DPS (deoxypodophyllotoxin synthase) (Sinopodophyllum hexandrum, UniProt A0A0N9HQ36); conditions: co-substrate; Fe bound, bidentate, offline mode; pH 8.5
[2] = target: T1, DPS (deoxypodophyllotoxin synthase); conditions: coproduct at Fe active site, with Fe and (±)-yatein; pH 7.5

T1 sequence (A0A0N9HQ36 whole entry): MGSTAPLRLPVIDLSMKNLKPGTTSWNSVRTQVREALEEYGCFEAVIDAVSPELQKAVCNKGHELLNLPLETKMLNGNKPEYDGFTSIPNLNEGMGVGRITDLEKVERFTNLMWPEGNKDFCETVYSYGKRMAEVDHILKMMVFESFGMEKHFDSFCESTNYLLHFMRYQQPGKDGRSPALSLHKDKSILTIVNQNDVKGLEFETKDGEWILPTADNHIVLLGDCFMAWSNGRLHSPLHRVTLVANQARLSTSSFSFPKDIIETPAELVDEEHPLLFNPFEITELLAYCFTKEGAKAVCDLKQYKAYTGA

Row | Structure (SMILES) | X-ray crystal structure, 2.09 A [1] | X-ray crystal structure, 2.05 A [2]
1 | O=C(O)CCC(=O)C(=O)O [2OG] | Overall structure of the DPS•Fe•2OG ternary complex (Protein Data Bank identification: 7E37) | –
2 | O=C(O)CCC(=O)O [succinate] | – | The substrate (−)-6a and the coproduct succinate are shown in stick representation

From publication PMC8740726 (Proceedings of the National Academy of Sciences of the …, 2021)
